Data taken from patent US11485742B2, “2-azaspiro[3.4]octane derivatives as M4 agonists” (NOVARTIS AG, priority 2019, dated 2022).
Counter-ions that a name gives are not always drawn.

Key:
Type in all cases: cell-based
[1] = target: T1, human cloned CHRM5 receptor (Homo sapiens, UniProt P08912); assay: CHRM5 Ca++ Flux Assay (M5_CHO cells, agonist mode); details: for Emax / M5 FDSS PA %: Percent Activity (PA) measured to EC100 of Carbachol; for Emax: read-out: M5 FDSS PA %; for EC50: agonist mode, geometric mean if tested more than once, read-out: M5 FDSS EC50
T1 construct: expressed in transfected cells; host or cells: CHO (M5_CHO)
T1 sequence (P08912 1-532): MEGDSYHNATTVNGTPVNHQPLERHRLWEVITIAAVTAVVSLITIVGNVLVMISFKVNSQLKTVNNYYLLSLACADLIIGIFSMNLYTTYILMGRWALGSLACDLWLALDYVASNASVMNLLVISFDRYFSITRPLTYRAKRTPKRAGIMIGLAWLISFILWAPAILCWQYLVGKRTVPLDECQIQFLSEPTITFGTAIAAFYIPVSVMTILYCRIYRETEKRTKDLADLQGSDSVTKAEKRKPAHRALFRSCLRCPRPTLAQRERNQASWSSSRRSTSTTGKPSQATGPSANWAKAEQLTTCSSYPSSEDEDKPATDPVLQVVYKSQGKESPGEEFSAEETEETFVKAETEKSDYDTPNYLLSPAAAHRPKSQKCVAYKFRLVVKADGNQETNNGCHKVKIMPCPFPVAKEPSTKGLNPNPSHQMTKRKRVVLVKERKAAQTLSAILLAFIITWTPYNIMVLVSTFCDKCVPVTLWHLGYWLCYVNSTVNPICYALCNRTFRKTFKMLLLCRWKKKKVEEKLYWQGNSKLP
Method in brief: (§1)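 CHO-K1 cells stably expressing human M3 or M5 receptor, dye-loaded ≥1 h, treated with 11-point compound doses in triplicate; Ca++ flux read over 3 min (FDSS). Agonist-mode four-parameter fit; percent activity relative to carbachol EC100; repeat tests reported as geometric mean.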

[2] = target: T2, human cloned CHRM3 receptor (Homo sapiens, UniProt P20309); assay: CHRM3 Ca++ Flux Assay (M3_CHO cells, agonist mode); details: for Emax / M3 FDSS PA %: Percent Activity (PA) measured to EC100 of Carbachol; for Emax: read-out: M3 FDSS PA %; for EC50: agonist mode, geometric mean if tested more than once, read-out: M3 FDSS EC50
T2 construct: expressed in transfected cells; host or cells: CHO-K1 (M3_CHO)
T2 sequence (P20309 whole entry): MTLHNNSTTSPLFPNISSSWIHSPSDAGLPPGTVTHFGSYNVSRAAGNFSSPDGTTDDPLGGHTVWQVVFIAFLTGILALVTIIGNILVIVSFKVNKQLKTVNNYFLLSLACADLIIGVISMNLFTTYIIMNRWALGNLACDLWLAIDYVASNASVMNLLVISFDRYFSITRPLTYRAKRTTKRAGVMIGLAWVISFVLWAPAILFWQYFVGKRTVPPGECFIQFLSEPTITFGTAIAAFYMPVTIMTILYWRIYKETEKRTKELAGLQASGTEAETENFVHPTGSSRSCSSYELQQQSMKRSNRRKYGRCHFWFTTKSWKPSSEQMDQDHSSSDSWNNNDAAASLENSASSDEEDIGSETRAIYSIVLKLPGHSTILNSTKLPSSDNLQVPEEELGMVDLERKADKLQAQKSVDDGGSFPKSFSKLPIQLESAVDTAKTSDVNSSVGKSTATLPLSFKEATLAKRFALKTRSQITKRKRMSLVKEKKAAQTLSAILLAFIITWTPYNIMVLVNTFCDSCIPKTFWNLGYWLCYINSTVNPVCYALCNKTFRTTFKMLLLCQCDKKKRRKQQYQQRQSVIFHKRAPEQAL
Method in brief: as §1

[3] = target: T3, Cloned human M1 receptor (CHRM1) (Homo sapiens, UniProt P11229); assay: CHRM1 Ca++ Flux Assay (HEK293 M1 cells, agonist mode); details: for Emax / M1 FDSS PA %: Percent Activity (PA); for Emax: read-out: M1 FDSS PA %; for EC50: geometric mean if tested more than once, read-out: M1 FDSS EC50
T3 construct: expressed in transfected cells; host or cells: HEK293
T3 sequence (P11229 1-460): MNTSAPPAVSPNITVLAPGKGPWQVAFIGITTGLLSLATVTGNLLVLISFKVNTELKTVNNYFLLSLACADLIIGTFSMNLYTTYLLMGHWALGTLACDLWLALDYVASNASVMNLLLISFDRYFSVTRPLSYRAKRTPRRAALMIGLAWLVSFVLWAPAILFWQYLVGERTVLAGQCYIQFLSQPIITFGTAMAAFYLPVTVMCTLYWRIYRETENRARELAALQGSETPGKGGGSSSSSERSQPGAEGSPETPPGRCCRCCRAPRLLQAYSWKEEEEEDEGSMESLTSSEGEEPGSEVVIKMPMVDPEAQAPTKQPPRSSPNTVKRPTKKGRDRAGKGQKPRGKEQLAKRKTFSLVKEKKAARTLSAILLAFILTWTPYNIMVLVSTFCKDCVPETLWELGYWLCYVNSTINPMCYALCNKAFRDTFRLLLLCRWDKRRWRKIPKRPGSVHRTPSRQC
Method in brief: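 HEK293 cells stably expressing human M1 were loaded with Ca++ dye, then given compounds (11-point dose, triplicate) in HBSS −Ca/−Mg, 20 mM HEPES. Ca++ flux was read over 3 min (agonist mode). Four-parameter curves were fitted, with activity as percent of carbachol EC100.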

| Compound | Emax [1] [%] | EC50 [1] [µM] | Emax [2] [%] | EC50 [2] [µM] | Emax [3] [%] | EC50 [3] [µM] | M5 FDSS PA % [1] [%] | M3 FDSS PA % [2] [%] | M1 FDSS PA % [3] [%] |
| --- | --- | --- | --- | --- | --- | --- | --- | --- | --- |
| Fc1cc(F)c(OC2COC2)c(C2CCN([C@@H]3COC4(C3)CN(c3nnco3)C4)CC2)c1 [Example 2EE, (S)-7-(4-(3,5-difluoro-2-(oxetan-3-yloxy)phenyl)piperidin-1-yl)-2-(1,3,4-oxadiazol-2-yl)-5-oxa-2-azaspiro[3.4]octane] | 0 | > 25 | 0 | > 25 | 95 | 2.34 | – | – | – |
| c1ccc(C2CCN([C@@H]3COC4(C3)CN(c3ncco3)C4)CC2)c(O[C@H]2CCOC2)c1 [Example 4H, (S)-2-(oxazol-2-yl)-7-(4-(2-(((S)-tetrahydrofuran-3-yl)oxy)phenyl)piperidin-1-yl)-5-oxa-2-azaspiro[3.4]octane] | 0 | > 25 | 0 | > 25 | 63 | 0.745 | – | – | – |
| Fc1cc(OC2COC2)c(C2CCN([C@@H]3COC4(C3)CN(c3ncco3)C4)CC2)cc1F [Example 4Q, (S)-7-(4-(4,5-difluoro-2-(oxetan-3-yloxy)phenyl)piperidin-1-yl)-2-(oxazol-2-yl)-5-oxa-2-azaspiro[3.4]octane] | 0 | > 25 | 0 | > 25 | 71 | 0.294 | – | – | – |
| c1ccc(C2CCN([C@@H]3COC4(C3)CN(c3nncs3)C4)CC2)c(OC2COC2)c1 [Example 5Q, (S)-7-(4-(2-(oxetan-3-yloxy)phenyl)piperidin-1-yl)-2-(1,3,4-thiadiazol-2-yl)-5-oxa-2-azaspiro[3.4]octane formate salt] | 0 | > 25 | 0 | > 25 | 86 | 0.864 | – | – | – |
| O[C@H]1CC[C@@H](c2ccc(F)cc2C2CCN([C@@H]3COC4(C3)CN(c3nnco3)C4)CC2)CC1 (single isomer, unassigned) [Example 3I, (1R,4s)-4-(2-(1-((S)-2-(1,3,4-oxadiazol-2-yl)-5-oxa-2-azaspiro[3.4]octan-7-yl)piperidin-4-yl)-4-fluorophenyl)cyclohexan-1-ol or (1S,4r)-4-(2-(1-((S)-2-(1,3,4-oxadiazol-2-yl)-5-oxa-2-azaspiro[3.4]octan-7-yl)piperidin-4-yl)-4-fluorophenyl)cyclohexan-1-ol] | – | > 25 | – | > 25 | – | 3.31 | 0 | 0 | 76 |
| Fc1ccc(O[C@H]2CCOC2)c(C2CCN([C@@H]3COC4(C3)CN(c3nnco3)C4)CC2)c1 [Example 1H, (S)-7-(4-(5-fluoro-2-(((S)-tetrahydrofuran-3-yl)oxy)phenyl)piperidin-1-yl)-2-(1,3,4-oxadiazol-2-yl)-5-oxa-2-azaspiro[3.4]octane] | 0 | > 25 | 0 | > 25 | 87 | 0.631 | – | – | – |
| COc1ccc(Cl)cc1C1CCN([C@@H]2COC3(C2)CN(c2ncns2)C3)CC1 [Example 5A, (S)-7-(4-(5-chloro-2-methoxyphenyl)piperidin-1-yl)-2-(1,2,4-thiadiazol-5-yl)-5-oxa-2-azaspiro[3.4]octane] | 0 | > 25 | 0 | > 25 | 70 | 0.63 | – | – | – |
| Fc1ccc(O[C@H]2CCOC2)c(C2CCN([C@@H]3COC4(C3)CN(c3nncs3)C4)CC2)c1 [Example 5O, (S)-7-(4-(5-fluoro-2-(((S)-tetrahydrofuran-3-yl)oxy)phenyl)piperidin-1-yl)-2-(1,3,4-thiadiazol-2-yl)-5-oxa-2-azaspiro[3.4]octane] | 0 | > 25 | 0 | > 25 | 78 | 0.789 | – | – | – |
| COCCOc1ccc(F)cc1C1CCN([C@@H]2COC3(C2)CN(c2nncs2)C3)CC1 [Example 5S, (S)-7-(4-(5-fluoro-2-(2-methoxyethoxy)phenyl)piperidin-1-yl)-2-(1,3,4-thiadiazol-2-yl)-5-oxa-2-azaspiro[3.4]octane] | 0 | > 25 | 0 | > 25 | 87 | 0.761 | – | – | – |
| Fc1ccc(OC2CCOCC2)c(C2CCN([C@@H]3COC4(C3)CN(c3ncco3)C4)CC2)c1 [Example 4E, (S)-7-(4-(5-fluoro-2-((tetrahydro-2H-pyran-4-yl)oxy)phenyl)piperidin-1-yl)-2-(oxazol-2-yl)-5-oxa-2-azaspiro[3.4]octane] | 0 | > 25 | 0 | > 25 | 75 | 0.979 | – | – | – |
| CC(C)(O)[C@H]1C[C@H](Oc2ccc(F)cc2C2CCN([C@@H]3COC4(C3)CN(c3nnco3)C4)CC2)C1 (single isomer, unassigned) [Example 2V, 2-((1S,3r)-3-(2-(1-((S)-2-(1,3,4-oxadiazol-2-yl)-5-oxa-2-azaspiro[3.4]octan-7-yl)piperidin-4-yl)-4-fluorophenoxy)cyclobutyl)propan-2-ol or 2-((1R,3s)-3-(2-(1-((S)-2-(1,3,4-oxadiazol-2-yl)-5-oxa-2-azaspiro[3.4]octan-7-yl)piperidin-4-yl)-4-fluorophenoxy)cyclobutyl)propan-2-ol] | – | > 25 | – | > 25 | – | 1.65 | 0 | 0 | 31 |
| Fc1cc(OC2CCOCC2)c(C2CCN([C@@H]3COC4(C3)CN(c3nnco3)C4)CC2)cc1F [Example 2GG, (S)-7-(4-(4,5-difluoro-2-((tetrahydro-2H-pyran-4-yl)oxy)phenyl)piperidin-1-yl)-2-(1,3,4-oxadiazol-2-yl)-5-oxa-2-azaspiro[3.4]octane] | 0 | > 25 | 0 | > 25 | 64 | 2.9 | – | – | – |
| CC(C)(O)COc1ccc(F)cc1C1CCN([C@@H]2COC3(C2)CN(c2nncs2)C3)CC1 [Example 5U, (S)-1-(2-(1-(2-(1,3,4-thiadiazol-2-yl)-5-oxa-2-azaspiro[3.4]octan-7-yl)piperidin-4-yl)-4-fluorophenoxy)-2-methylpropan-2-ol] | 0 | > 25 | 0 | > 25 | 75 | 2.44 | – | – | – |
| c1ccc(C2CCN([C@@H]3COC4(C3)CN(c3ncco3)C4)CC2)c(OC2CCOCC2)c1 [Example 4J, (S)-2-(oxazol-2-yl)-7-(4-(2-((tetrahydro-2H-pyran-4-yl)oxy)phenyl)piperidin-1-yl)-5-oxa-2-azaspiro[3.4]octane] | 0 | > 25 | 0 | > 25 | 72 | 1.67 | – | – | – |
| c1ccc(C2CCN([C@@H]3COC4(C3)CN(c3ncco3)C4)CC2)c(O[C@@H]2CCOC2)c1 [Example 4F, (S)-2-(oxazol-2-yl)-7-(4-(2-(((R)-tetrahydrofuran-3-yl)oxy)phenyl)piperidin-1-yl)-5-oxa-2-azaspiro[3.4]octane] | 0 | > 25 | 0 | > 25 | 90 | 0.54 | – | – | – |
